Results as given in US9034859B2, “Sulfated oxysterol and oxysterol sulfation by hydroxysterol sulfotransferase promote lipid homeostasis and liver proliferation” (Virginia Commonwealth University, priority 2011, dated 2015).

Tests used:
[1] = HPLC analysis of 25HC3S and 25HC levels in liver tissues; format: in vivo, C57BL/6J female mice; conditions: HFD mice, acute treatment
[2] = HPLC analysis of serum lipoprotein profiles; format: in vivo, C57BL/6J female mice; conditions: HFD mice, acute treatment
Description: Animal studies were approved by Institutional Animal Care and Use Committee of McGuire Veterans Affairs Medical Center and were conducted in accordance with the Declaration of Helsinki, the Guide for the Care and Use of Laboratory Animals, and all applicable regulations. […] All mice were housed under identical conditions in an aseptic facility and given free access to water and food. At the end of each period, the mice were intraperitoneally injected with vehicle solution (ethanol/PBS; […] Serum triglyceride, total cholesterol, high density lipoprotein-cholesterol, glucose, alkaline phosphatase (ALK), alanine aminotransferase (ALT), and aspartate aminotransferase (AST) were measured using standard enzymatic techniques in the clinical laboratory at McGuire Veterans Affairs Medical Center. Lipoprotein profiles in sera were analyzed by HPLC as following described. […] Fractions were collected for 1.2 min each. The cholesterol assay was performed using 180 μl of each fraction plus 20 μl of a 10× solution of Wako Total Cholesterol E Reagent (Wako Chemicals USA, Richmond, Va.) in a 96 well plate, incubated at 37° C. and read at 595 nm.

[3] = tested on: lipogenic gene expression; test: Relative hepatic mRNA expression by real-time RT-PCR, acute treatment; format: in vivo, C57BL/6J female mice; conditions: liver; for ABCA1 relative hepatic mRNA / ABCG1 relative hepatic mRNA / ACC1 relative hepatic mRNA / ACOX1 relative hepatic mRNA / CD36 relative hepatic mRNA / CPT1 relative hepatic mRNA / CYP7α relative hepatic mRNA / CYP27α relative hepatic mRNA / FABP1 relative hepatic mRNA / FAS relative hepatic mRNA / FATP relative hepatic mRNA / G6Pase relative hepatic mRNA / GCK relative hepatic mRNA / GPAM relative hepatic mRNA / LDLR relative hepatic mRNA / LXRα relative hepatic mRNA / MCAD relative hepatic mRNA / MTTP relative hepatic mRNA / PCK1 relative hepatic mRNA / PLTP relative hepatic mRNA / PPARα relative hepatic mRNA / Pkir relative hepatic mRNA / SCD relative hepatic mRNA / SRB1 relative hepatic mRNA / SREBP-1c relative hepatic mRNA / SULT2B1b relative hepatic mRNA: acute treatment (twice), mean ± SD, n=5-6
Description: (§1) Animal studies were approved by Institutional Animal Care and Use Committee of McGuire Veterans Affairs Medical Center and were conducted in accordance with the Declaration of Helsinki, the Guide for the Care and Use of Laboratory Animals, and all applicable regulations. To examine the effect of 25HC3S on diet-induced lipid accumulation in sera and liver, 8-week-old female C57BL/6J mice (Charles River, Wilmington, Mass.) were randomly assigned to three groups: the first control group was fed a chow diet; the high fat diet (HFD) group was fed a HFD (Harlan Teklad, Madison, Wis.) containing 42% kcal from fat, 43% kcal from carbohydrate, 15% kcal from protein and 0.2% cholesterol; and the high cholesterol diet (HCD) group was fed a 2% cholesterol diet with 18% kcal from fat, 58% kcal from carbohydrate and 24% kcal from protein for 10 weeks, respectively. All mice were housed under identical conditions in an aseptic facility and given free access to water and food. At the end of each period, the mice were intraperitoneally injected with vehicle solution (ethanol/PBS; Vehicle), 25HC (25 mg/kg), or 25HC3S (25 mg/kg) for 2 times and fasted over night for acute treatment (n=15-17 for each group) or once every three days for 6 weeks (n=16 for each group) and fasted 5 hrs for long-term treatment; and blood samples were collected. Serum triglyceride, total cholesterol, high density lipoprotein-cholesterol, glucose, alkaline phosphatase (ALK), alanine aminotransferase (ALT), and aspartate aminotransferase (AST) were measured using standard enzymatic techniques in the clinical laboratory at McGuire Veterans Affairs Medical Center. Lipoprotein profiles in sera were analyzed by HPLC as following described.
Total RNA was isolated with SV Total RNA Isolation Kit (Promega, Madison, Wis.), which included DNase treatment. Total RNA, 2 μg, was used for the first-strand cDNA synthesis as recommended by the manufacturer (Invitrogen, Carlsbad, Calif.). Real-time RT-PCR was performed using SYBR Green as indicator on ABI 7500 Fast Real-Time PCR System (Applied Biosystems, Foster City, Calif.). All primer/probe sets for real-time PCR were TaqMan gene expression assays (Applied Biosystems, Foster City, Calif.). Amplifications of β-actin and GAPDH were used as internal controls. Relative messenger RNA (mRNA) expression was quantified with the comparative cycle threshold (Ct) method and was expressed as 2^−ΔΔCt. Suitable primers were utilized.

[4] = Serum parameters after acute treatment of HFD- or HCD-fed mice (NAFLD model); format: in vivo, C57BL/6J female mice; conditions: 25 mg/kg i.p. twice, fasted overnight, mean ± SD, n=15-17
Description: as §1

LXR signaling pathway = test: Western blot of LXR and its target genes and PCNA in mouse liver (Example 3); format: in vivo, C57BL/6 mice
Description: Cayman Chemical, Ann Arbor, Mich.); […] […] Metabolism. (Accepted)]. […] Cell lysates were prepared from frozen mouse liver tissues. Total proteins, 100 μg, were separated by 10% SDS-PAGE, and transferred to PVDF membrane (Millipore, Eschbom, Germany). […] Louis, Mo.) was used as a loading control. The immunoreactive bands were detected by Fujifilm Medical System (Fujifilm, Stamford, Conn.) and quantified by Advanced Image Data Analyzer (Aida Inc., Straubenhardt, Germany).

[5] = HFD mice, acute treatment, compared to vehicle

Structure (SMILES): CC(CCCC(C)(C)O)C1CCC2C3CC=C4CC(OS(=O)(=O)O)CCC4(C)C3CCC12C (centres unmarked) [25HC3S, 25-hydroxycholesterol-3-sulfate]
- level of the administered compound in liver [1]: significantly increased
- LDL, VLDL, and HDL protein levels [2]: did not change
- cholesterol contents in HDL fractions [2]: slightly decreased
- triglyceride contents in VLDL fractions [2]: markedly decreased
- ABCA1 relative hepatic mRNA ([3]; HFD mice): 0.71 ± 0.12
- ABCG1 relative hepatic mRNA ([3]; HFD mice): 1.14 ± 0.76
- ACC1 relative hepatic mRNA ([3]; HFD mice): 0.56 ± 0.12
- ACOX1 relative hepatic mRNA ([3]; HFD mice): 0.82 ± 0.16
- CD36 relative hepatic mRNA ([3]; HFD mice): 0.93 ± 0.36
- CPT1 relative hepatic mRNA ([3]; HFD mice): 1.05 ± 0.19
- CYP7α relative hepatic mRNA ([3]; HFD mice): 0.60 ± 0.18
- CYP27α relative hepatic mRNA ([3]; HFD mice): 1.06 ± 0.23
- FABP1 relative hepatic mRNA ([3]; HFD mice): 1.14 ± 0.45
- FAS relative hepatic mRNA ([3]; HFD mice): 0.33 ± 0.21
- FATP relative hepatic mRNA ([3]; HFD mice): 1.05 ± 0.29
- G6Pase relative hepatic mRNA ([3]; HFD mice): 1.36 ± 0.77
- GCK relative hepatic mRNA ([3]; HFD mice): 1.10 ± 0.68
- GPAM relative hepatic mRNA ([3]; HFD mice): 1.16 ± 0.08
- LDLR relative hepatic mRNA ([3]; HFD mice): 1.07 ± 0.09
- LXRα relative hepatic mRNA ([3]; HFD mice): 0.79 ± 0.10
- MCAD relative hepatic mRNA ([3]; HFD mice): 1.36 ± 0.31
- MTTP relative hepatic mRNA ([3]; HFD mice): 1.31 ± 0.20
- PCK1 relative hepatic mRNA ([3]; HFD mice): 1.02 ± 0.25
- PLTP relative hepatic mRNA ([3]; HFD mice): 0.97 ± 0.55
- PPARα relative hepatic mRNA ([3]; HFD mice): 0.93 ± 0.35
- Pkir relative hepatic mRNA ([3]; HFD mice): 0.61 ± 0.18
- SCD relative hepatic mRNA ([3]; HFD mice): 0.93 ± 0.27
- SRB1 relative hepatic mRNA ([3]; HFD mice): 1.30 ± 0.22
- SREBP-1c relative hepatic mRNA ([3]; HFD mice): 0.56 ± 0.13
- SULT2B1b relative hepatic mRNA ([3]; HFD mice): 1.29 ± 0.34
- reduction of ACCT mRNA level [3, 5]: 45%
- reduction of FAS mRNA level [3, 5]: 70%
- reduction of LXRα mRNA level [3, 5]: 20%
- reduction of SREBP-1c mRNA level [3, 5]: 45%
- ALK ([4]; HCD 10 weeks): 89 ± 19 IU/L
- ALT ([4]; HCD 10 weeks): 44 ± 5 IU/L
- AST ([4]; HCD 10 weeks): 227 ± 48 IU/L
- Cholesterol ([4]; HCD 10 weeks): 86 ± 7 mg/dL
- Glucose ([4]; HCD 10 weeks): 249 ± 39 mg/dL
- HDL-C ([4]; HCD 10 weeks): 77 ± 7 mg/dL
- Triglycerides ([4]; HCD 10 weeks): 43 ± 8 mg/dL
- ALK ([4]; HFD 10 weeks): 76 ± 21 IU/L
- ALT ([4]; HFD 10 weeks): 47 ± 6 IU/L
- AST ([4]; HFD 10 weeks): 222 ± 54 IU/L
- Cholesterol ([4]; HFD 10 weeks): 87 ± 24 mg/dL
- Glucose ([4]; HFD 10 weeks): 245 ± 50 mg/dL
- HDL-C ([4]; HFD 10 weeks): 72 ± 26 mg/dL
- Triglycerides ([4]; HFD 10 weeks): 34 ± 9 mg/dL
- decrease of ABCA1 protein level (LXR signaling pathway; 5 mg/kg, 48 h): 50%
- decrease of LXRα protein level (LXR signaling pathway; 5 mg/kg, 48 h): 40%
- decrease of SREBP-1c protein level (LXR signaling pathway; 5 mg/kg, 48 h): 30%
- increase of PCNA protein level (LXR signaling pathway; 5 mg/kg, 48 h): 2 fold

Structure (SMILES): C[C@H](CCCC(C)(C)O)[C@H]1CC[C@H]2[C@@H]3CC=C4C[C@@H](O)CC[C@]4(C)[C@H]3CC[C@]12C [25HC, 25-hydroxycholesterol]
- level of the administered compound in liver [1]: significantly increased
- cholesterol contents in LDL and HDL fractions [2]: significantly increased
- triglyceride contents in LDL fractions [2]: significantly increased
- decrease of ACOX1 mRNA level ([3]; HFD mice, acute treatment): 55%
- decrease of PPARα mRNA level ([3]; HFD mice, acute treatment): 40%
- decrease of SCD mRNA level ([3]; HFD mice, acute treatment): 40%
- increase of ACC1 mRNA level ([3]; HFD mice, acute treatment): 160%
- increase of FAS mRNA level ([3]; HFD mice, acute treatment): 150%
- increase of SREBP-1c mRNA level ([3]; HFD mice, acute treatment): 170%
- increase of SULT2B1b expression ([3]; HFD mice, acute treatment): 3 fold
- ABCA1 relative hepatic mRNA ([3]; HFD mice): 1.08 ± 0.24
- ABCG1 relative hepatic mRNA ([3]; HFD mice): 1.38 ± 0.78
- ACC1 relative hepatic mRNA ([3]; HFD mice): 1.58 ± 0.64
- ACOX1 relative hepatic mRNA ([3]; HFD mice): 0.45 ± 0.17
- CD36 relative hepatic mRNA ([3]; HFD mice): 0.71 ± 0.24
- CPT1 relative hepatic mRNA ([3]; HFD mice): 0.94 ± 0.16
- CYP7α relative hepatic mRNA ([3]; HFD mice): 0.19 ± 0.18
- CYP27α relative hepatic mRNA ([3]; HFD mice): 1.00 ± 0.12
- FABP1 relative hepatic mRNA ([3]; HFD mice): 0.48 ± 0.15
- FAS relative hepatic mRNA ([3]; HFD mice): 1.45 ± 0.18
- FATP relative hepatic mRNA ([3]; HFD mice): 0.67 ± 0.12
- G6Pase relative hepatic mRNA ([3]; HFD mice): 0.25 ± 0.13
- GCK relative hepatic mRNA ([3]; HFD mice): 0.57 ± 0.16
- GPAM relative hepatic mRNA ([3]; HFD mice): 1.12 ± 0.27
- LDLR relative hepatic mRNA ([3]; HFD mice): 1.38 ± 0.50
- LXRα relative hepatic mRNA ([3]; HFD mice): 0.98 ± 0.09
- MCAD relative hepatic mRNA ([3]; HFD mice): 0.75 ± 0.12
- MTTP relative hepatic mRNA ([3]; HFD mice): 1.04 ± 0.14
- PCK1 relative hepatic mRNA ([3]; HFD mice): 1.47 ± 0.37
- PLTP relative hepatic mRNA ([3]; HFD mice): 0.81 ± 0.36
- PPARα relative hepatic mRNA ([3]; HFD mice): 0.59 ± 0.09
- Pkir relative hepatic mRNA ([3]; HFD mice): 0.77 ± 0.13
- SCD relative hepatic mRNA ([3]; HFD mice): 0.59 ± 0.13
- SRB1 relative hepatic mRNA ([3]; HFD mice): 1.52 ± 0.31
- SREBP-1c relative hepatic mRNA ([3]; HFD mice): 1.69 ± 0.75
- SULT2B1b relative hepatic mRNA ([3]; HFD mice): 3.33 ± 0.89
- increase of IL1α expression ([3]; data not shown): 217%
- increase of NFκB expression ([3]; data not shown): 168%
- ALK ([4]; HFD 10 weeks): 55 ± 12 IU/L
- ALT ([4]; HFD 10 weeks): 56 ± 14 IU/L
- AST ([4]; HFD 10 weeks): 294 ± 57 IU/L
- Cholesterol ([4]; HFD 10 weeks): 144 ± 24 mg/dL
- Glucose ([4]; HFD 10 weeks): 188 ± 26 mg/dL
- HDL-C ([4]; HFD 10 weeks): 119 ± 21 mg/dL
- Triglycerides ([4]; HFD 10 weeks): 49 ± 13 mg/dL
- expression of ABCA1 and SREBP-1c (LXR signaling pathway; Ad-Control and 25HC co-treatment group): effectively up-regualted
